Source: the supplement of paper PMC10307832

What was measured:
Assay in all cases: relative viability (nuclei count vs DMSO), 5 days (fraction); higher = more cells survive
[1] = tested on: A-427
How it was run: (§1)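 After 5 days of treatment, lung cancer cells in 1536-well plates were fixed and stained in a single step (final 0.05% Triton X-100, 1% formaldehyde, 1 ug/ml Hoechst) and their nuclei counted on 4× images. Treatment had been applied by pin tool the day after seeding as one drug alone or as a fixed anchor-drug dose with five library-drug doses (not always all listed) in √10 steps. Relative viability is the nuclei count of treated wells divided by that of vehicle wells, and values are medians of duplicate plates.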

[2] = tested on: ABC-1
How it was run: as §1

[3] = tested on: EMC-BAC-2
How it was run: as §1

[4] = tested on: HARA
How it was run: as §1

[5] = tested on: HOP-62
How it was run: as §1

[6] = tested on: LK-2
How it was run: as §1

[7] = tested on: LXF-289
How it was run: as §1

[8] = tested on: NCI-H1944
How it was run: as §1

[9] = tested on: NCI-H1993
How it was run: as §1

[10] = tested on: NCI-H2009
How it was run: as §1

[11] = tested on: NCI-H2170
How it was run: as §1

[12] = tested on: NCI-H2228
How it was run: as §1

[13] = tested on: NCI-H3122
How it was run: as §1

[14] = tested on: NCI-H322M
How it was run: as §1

[15] = tested on: NCI-H522
How it was run: as §1

[16] = tested on: NCI-H596
How it was run: as §1

[17] = tested on: NCI-H727
How it was run: as §1

[18] = tested on: PC-3 [JPC-3]
How it was run: as §1

[19] = tested on: SK-MES-1
How it was run: as §1

[20] = tested on: SW 1573
How it was run: as §1

[21] = tested on: SW 900
How it was run: as §1

## CCN(CC)CCCCNc1ncc2cc(-c3cc(OC)cc(OC)c3)c(NC(=O)NC(C)(C)C)nc2n1 + O=C(CCCCCCC(=O)Nc1ccccc1)NO [Vorinostat] (partner 1 µM)
[1]; first compound 0.01 µM
  relative viability: 0.806
[1]; first compound 0.03162 µM
  relative viability: 0.919
[1]; first compound 0.1 µM
  relative viability: 1.02
[1]; first compound 0.3162 µM
  relative viability: 0.926
[1]; first compound 1 µM
  relative viability: 0.817
[2]; first compound 0.03162 µM
  relative viability: 0.99
[2]; first compound 0.1 µM
  relative viability: 1.35
[2]; first compound 0.3162 µM
  relative viability: 1.01
[2]; first compound 1 µM
  relative viability: 1.09
[3]; first compound 0.03162 µM
  relative viability: 0.403
[3]; first compound 0.1 µM
  relative viability: 0.428
[3]; first compound 0.3162 µM
  relative viability: 0.758
[3]; first compound 1 µM
  relative viability: 0.444
[4]; first compound 0.01 µM
  relative viability: 0.406
[4]; first compound 0.03162 µM
  relative viability: 0.483
[4]; first compound 0.1 µM
  relative viability: 0.528
[4]; first compound 0.3162 µM
  relative viability: 0.51
[4]; first compound 1 µM
  relative viability: 0.365
[5]; first compound 0.01 µM
  relative viability: 0.715
[5]; first compound 0.03162 µM
  relative viability: 0.595
[5]; first compound 0.1 µM
  relative viability: 0.616
[5]; first compound 0.3162 µM
  relative viability: 0.65
[5]; first compound 1 µM
  relative viability: 0.663
[6]; first compound 0.01 µM
  relative viability: 0.266
[6]; first compound 0.03162 µM
  relative viability: 0.213
[6]; first compound 0.1 µM
  relative viability: 0.2
[6]; first compound 0.3162 µM
  relative viability: 0.235
[6]; first compound 1 µM
  relative viability: 0.252
[7]; first compound 0.01 µM
  relative viability: 0.768
[7]; first compound 0.03162 µM
  relative viability: 0.905
[7]; first compound 0.1 µM
  relative viability: 0.829
[7]; first compound 0.3162 µM
  relative viability: 0.85
[7]; first compound 1 µM
  relative viability: 0.661
[8]; first compound 0.01 µM
  relative viability: 0.536
[8]; first compound 0.03162 µM
  relative viability: 0.676
[8]; first compound 0.1 µM
  relative viability: 0.596
[8]; first compound 0.3162 µM
  relative viability: 0.576
[8]; first compound 1 µM
  relative viability: 0.521
[9]; first compound 0.01 µM
  relative viability: 0.776
[9]; first compound 0.03162 µM
  relative viability: 0.726
[9]; first compound 0.1 µM
  relative viability: 0.899
[9]; first compound 0.3162 µM
  relative viability: 0.882
[9]; first compound 1 µM
  relative viability: 0.695
[10]; first compound 0.01 µM
  relative viability: 0.731
[10]; first compound 0.03162 µM
  relative viability: 0.749
[10]; first compound 0.1 µM
  relative viability: 0.78
[10]; first compound 0.3162 µM
  relative viability: 0.78
[10]; first compound 1 µM
  relative viability: 0.624
[11]; first compound 0.01 µM
  relative viability: 0.782
[11]; first compound 0.03162 µM
  relative viability: 0.92
[11]; first compound 0.1 µM
  relative viability: 0.983
[11]; first compound 0.3162 µM
  relative viability: 0.969
[11]; first compound 1 µM
  relative viability: 0.776
[12]; first compound 0.01 µM
  relative viability: 0.643
[12]; first compound 0.03162 µM
  relative viability: 0.515
[12]; first compound 0.1 µM
  relative viability: 0.807
[12]; first compound 0.3162 µM
  relative viability: 0.794
[12]; first compound 1 µM
  relative viability: 0.595
[13]; first compound 0.01 µM
  relative viability: 0.983
[13]; first compound 0.03162 µM
  relative viability: 1.06
[13]; first compound 0.1 µM
  relative viability: 1.09
[13]; first compound 0.3162 µM
  relative viability: 0.996
[13]; first compound 1 µM
  relative viability: 1.14
[14]; first compound 0.01 µM
  relative viability: 0.787
[14]; first compound 0.03162 µM
  relative viability: 0.911
[14]; first compound 0.1 µM
  relative viability: 0.934
[14]; first compound 0.3162 µM
  relative viability: 0.966
[14]; first compound 1 µM
  relative viability: 0.872
[15]; first compound 0.01 µM
  relative viability: 0.891
[15]; first compound 0.03162 µM
  relative viability: 0.835
[15]; first compound 0.1 µM
  relative viability: 1.19
[15]; first compound 0.3162 µM
  relative viability: 0.948
[15]; first compound 1 µM
  relative viability: 0.962
[16]; first compound 0.01 µM
  relative viability: 0.658
[16]; first compound 0.03162 µM
  relative viability: 0.699
[16]; first compound 0.1 µM
  relative viability: 0.597
[16]; first compound 0.3162 µM
  relative viability: 0.625
[16]; first compound 1 µM
  relative viability: 0.579
[17]; first compound 0.01 µM
  relative viability: 1.2
[17]; first compound 0.03162 µM
  relative viability: 1.09
[17]; first compound 0.1 µM
  relative viability: 1.47
[17]; first compound 0.3162 µM
  relative viability: 1.23
[17]; first compound 1 µM
  relative viability: 1.23
[18]; first compound 0.03162 µM
  relative viability: 0.659
[18]; first compound 0.1 µM
  relative viability: 0.937
[18]; first compound 0.3162 µM
  relative viability: 1.18
[18]; first compound 1 µM
  relative viability: 0.698
[19]; first compound 0.01 µM
  relative viability: 1.15
[19]; first compound 0.03162 µM
  relative viability: 1.17
[19]; first compound 0.1 µM
  relative viability: 1.22
[19]; first compound 0.3162 µM
  relative viability: 1.52
[19]; first compound 1 µM
  relative viability: 1.19
[20]; first compound 0.01 µM
  relative viability: 0.79
[20]; first compound 0.03162 µM
  relative viability: 0.959
[20]; first compound 0.1 µM
  relative viability: 0.952
[20]; first compound 0.3162 µM
  relative viability: 0.707
[20]; first compound 1 µM
  relative viability: 0.705
[21]; first compound 0.01 µM
  relative viability: 0.551
[21]; first compound 0.03162 µM
  relative viability: 0.626
[21]; first compound 0.1 µM
  relative viability: 0.44
[21]; first compound 0.3162 µM
  relative viability: 0.412
[21]; first compound 1 µM
  relative viability: 0.254
